Reference: PubChem BioAssay AID330 (DTP/NCI, 2004)
Values joined by “and” are separate entries in the source; they are usually repeats but may differ in a detail not shown here. Equal entries are not always repeated. Inconclusive results and toxic doses are left out. Rule for the calls: active = survival T/C of 150% or more; inactive = T/C below 125% in these data. Square brackets hold non-standard residues; d marks the D form. Peptide text beside a SMILES is read from it. * marks the point of attachment. ξ: configuration not given here. Cbz = O=C(OCc1ccccc1)*; ξV = CC(C)C(N)C(=O)O; Sar = CNCC(=O)O

System: P388 leukemia ip, CD2F1 mice, survival T/C
Assay: NCI In Vivo Anticancer Drug Screen. Data for tumor model P388 Leukemia (intraperitoneal) in CD2F1 (CDF1) mice
Conditions: endpoint: median survival time, higher = longer survival
How it was run: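 Mice carrying the transplanted tumor received test compound or vehicle. Survival was recorded in each group, and the value is the treated-group measurement divided by that of the vehicle-treated control group.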

[1] = dose: 50.0 mg/kg/injection, schedule: Q01DX009 (ip), vehicle: saline with Tween-80
[2] = dose: 100.0 mg/kg/injection, schedule: Q01DX009 (ip), vehicle: saline with Tween-80
[3] = dose: 200.0 mg/kg/injection, schedule: Q01DX009 (ip), vehicle: saline with Tween-80
[4] = dose: 50.0 mg/kg/injection, schedule: Q01DX009 (ip), vehicle: Klucel (hydroxypropylcellulose) (HPC)
[5] = dose: 100.0 mg/kg/injection, schedule: Q01DX009 (ip), vehicle: Klucel (hydroxypropylcellulose) (HPC)
[6] = dose: 200.0 mg/kg/injection, schedule: Q01DX009 (ip), vehicle: Klucel (hydroxypropylcellulose) (HPC)
[7] = dose: 50.0 mg/kg/injection, schedule: Q01DX005 (ip), vehicle: Klucel (hydroxypropylcellulose) (HPC)
[8] = dose: 100.0 mg/kg/injection, schedule: Q01DX005 (ip), vehicle: Klucel (hydroxypropylcellulose) (HPC)
[9] = dose: 200.0 mg/kg/injection, schedule: Q01DX005 (ip), vehicle: Klucel (hydroxypropylcellulose) (HPC)
[10] = dose: 100.0 mg/kg/injection, schedule: Q04DX002 (ip), vehicle: saline with Tween-80
[11] = dose: 200.0 mg/kg/injection, schedule: Q04DX002 (ip), vehicle: saline with Tween-80
[12] = dose: 100.0 mg/kg/injection, schedule: Q04DX003 (ip), vehicle: saline with Tween-80
[13] = dose: 200.0 mg/kg/injection, schedule: Q04DX003 (ip), vehicle: saline with Tween-80
[14] = dose: 400.0 mg/kg/injection, schedule: Q04DX003 (ip), vehicle: saline with Tween-80
[15] = dose: 200.0 mg/kg/injection, schedule: Q01DX005 (ip), vehicle: saline with Tween-80
[16] = dose: 100.0 mg/kg/injection, schedule: Q04DX003 (ip), vehicle: saline
[17] = dose: 200.0 mg/kg/injection, schedule: Q04DX003 (ip), vehicle: saline
[18] = dose: 400.0 mg/kg/injection, schedule: Q04DX003 (ip), vehicle: saline
[19] = dose: 60.0 mg/kg/injection, schedule: Q01DX005 (ip), vehicle: Klucel (hydroxypropylcellulose) (HPC)
[20] = dose: 120.0 mg/kg/injection, schedule: Q01DX005 (ip), vehicle: Klucel (hydroxypropylcellulose) (HPC)
[21] = dose: 240.0 mg/kg/injection, schedule: Q01DX005 (ip), vehicle: Klucel (hydroxypropylcellulose) (HPC)
[22] = dose: 60.0 mg/kg/injection, schedule: Q01DX005 (ip), vehicle: saline
[23] = dose: 120.0 mg/kg/injection, schedule: Q01DX005 (ip), vehicle: saline

Measured: T/C

S=C(N/N=C(\c1ccccc1)c1ccccn1)SCc1ccccc1
inactive: [1] 99 % of control | [2] 90 % of control | [3] 97 % of control

N#Cc1nc2ccccc2n1OCc1ccccc1
inactive: [4] 97 % of control | [5] 107 % of control | [6] 102 % of control

Cc1ccc(O)c(C(=NCCCCN=C(c2ccccc2)c2cc(C)ccc2O)c2ccccc2)c1
inactive: [7] 99 % of control | [8] 94 % of control | [9] 99 % of control

CCCCCCCCCCCCCCCCCC(N)=S
inactive: dose: 12.5 mg/kg/injection, schedule: Q01DX005 (ip), vehicle: Klucel + Tween-80 95 % of control | dose: 25.0 mg/kg/injection, schedule: Q01DX005 (ip), vehicle: Klucel + Tween-80 95 % of control | dose: 50.0 mg/kg/injection, schedule: Q01DX005 (ip), vehicle: Klucel + Tween-80 86 % of control and 94 % of control | dose: 200.0 mg/kg/injection, schedule: Q01DX005 (ip), vehicle: Klucel + Tween-80 87 % of control

COc1cccc(C(=O)NC(=O)NC(=O)c2ccccc2)c1
inactive: [10] 100 % of control | [11] 93 % of control | dose: 400.0 mg/kg/injection, schedule: Q04DX002 (ip), vehicle: saline with Tween-80 93 % of control

O=c1[nH]cccc1[N+](=O)[O-]
inactive: [12] 100 % of control | [13] 100 % of control | [14] 109 % of control | dose: 600.0 mg/kg/injection, schedule: Q01DX009 (ip), vehicle: saline 90 % of control and 93 % of control

CC1CC[P+](Cc2ccccc2)(c2ccccc2)CC1 (stereo not given)
inactive: dose: 1.56 mg/kg/injection, schedule: Q04DX002 (ip), vehicle: saline 98 % of control | dose: 3.13 mg/kg/injection, schedule: Q04DX002 (ip), vehicle: saline 95 % of control | dose: 6.25 mg/kg/injection, schedule: Q04DX002 (ip), vehicle: saline 90 % of control

[N-]=[N+]=Nc1ccccc1C(=O)NCCNC(=O)c1ccccc1N=[N+]=[N-]
inactive: dose: 6.25 mg/kg/injection, schedule: Q01DX005 (ip), vehicle: saline with Tween-80 94 % of control | dose: 12.5 mg/kg/injection, schedule: Q01DX005 (ip), vehicle: saline with Tween-80 91 % of control | [15] 87 % of control

COC(=O)c1ccccc1NC(=O)Nc1ncccn1
inactive: [4] 100 % of control | [5] 100 % of control | [6] 96 % of control

O=C(O)C[N-]CC[N-]CC(=O)O.[Cl][Pt+2][Cl]
inactive: dose: 6.25 mg/kg/injection, schedule: Q04DX002 (ip), vehicle: saline with Tween-80 108 % of control | dose: 12.5 mg/kg/injection, schedule: Q04DX002 (ip), vehicle: saline with Tween-80 103 % of control | dose: 25.0 mg/kg/injection, schedule: Q04DX002 (ip), vehicle: saline with Tween-80 113 % of control | dose: 50.0 mg/kg/injection, schedule: Q04DX002 (ip), vehicle: saline with Tween-80 109 % of control | [10] 120 % of control | [11] 102 % of control

CC(C)C(NC(=O)CN(C)C(=O)OCc1ccccc1)C(=O)O (stereo not given) (Cbz-[Sar]-[ξV]-OH)
inactive: dose: 50.0 mg/kg/injection, schedule: Q01DX005 (ip), vehicle: saline with Tween-80 100 % of control | dose: 100.0 mg/kg/injection, schedule: Q01DX005 (ip), vehicle: saline with Tween-80 102 % of control

Cn1c2nc(-[n+]3cccc(CO)c3)nc-2c([O-])n(C)c1=O
inactive: [16] 103 % of control | [17] 99 % of control | [18] 103 % of control

CC(C)(C)C1CCC(C(=O)O)CC1 (stereo not given)
inactive: [1] 91 % of control | dose: 50.0 mg/kg/injection, schedule: Q04DX003 (ip), vehicle: saline with Tween-80 100 % of control | [2] 100 % of control and 91 % of control | [12] 95 % of control | [3] 91 % of control and 100 % of control | [13] 109 % of control and 95 % of control | dose: 400.0 mg/kg/injection, schedule: Q01DX009 (ip), vehicle: saline with Tween-80 91 % of control | [14] 100 % of control

Cc1ccc(SC(=O)c2cccnc2Oc2ccccc2)cc1
inactive: [7] 90 % of control | [8] 99 % of control | [9] 96 % of control

CC(C)(COS(C)(=O)=O)COS(C)(=O)=O
inactive: dose: 50.0 mg/kg/injection, schedule: Q01DX009 (ip), vehicle: saline 107 % of control | dose: 50.0 mg/kg/injection, schedule: Q01DX009 (ip), vehicle: suspension in saline 96 % of control | dose: 100.0 mg/kg/injection, schedule: Q01DX009 (ip), vehicle: saline 91 % of control | dose: 100.0 mg/kg/injection, schedule: Q01DX009 (ip), vehicle: suspension in saline 101 % of control and 91 % of control | dose: 200.0 mg/kg/injection, schedule: Q01DX009 (ip), vehicle: saline 110 % of control | dose: 200.0 mg/kg/injection, schedule: Q01DX009 (ip), vehicle: suspension in saline 104 % of control and 92 % of control | dose: 400.0 mg/kg/injection, schedule: Q01DX009 (ip), vehicle: suspension in saline 112 % of control and 90 % of control

CCCCCCCC(=O)c1c(O)c2ccccc2oc1=O
inactive: dose: 15.0 mg/kg/injection, schedule: Q01DX005 (ip), vehicle: saline with Tween-80 102 % of control | dose: 30.0 mg/kg/injection, schedule: Q01DX005 (ip), vehicle: saline with Tween-80 105 % of control | dose: 60.0 mg/kg/injection, schedule: Q01DX005 (ip), vehicle: saline with Tween-80 103 % of control and 96 % of control

NC(=S)c1ncn(C2OC(COC=O)C(OC=O)C2OC=O)c1NC=O (stereo not given)
inactive: dose: 25.0 mg/kg/injection, schedule: Q01DX005 (ip), vehicle: Klucel (hydroxypropylcellulose) (HPC) 110 % of control | [7] 108 % of control | [8] 113 % of control | [9] 120 % of control | [15] 114 % of control | dose: 400.0 mg/kg/injection, schedule: Q01DX005 (ip), vehicle: Klucel (hydroxypropylcellulose) (HPC) 100 % of control | dose: 400.0 mg/kg/injection, schedule: Q01DX005 (ip), vehicle: saline with Tween-80 97 % of control

O=C1CN(C2CCCCC2Br)C(=O)CN1C1CCCCC1Br (stereo not given)
inactive: [19] 97 % of control | [20] 94 % of control | [21] 96 % of control

O=c1oc2ccccc2c2c1SC(c1ccncc1)C2 (stereo not given)
inactive: [19] 91 % of control | [20] 88 % of control | [21] 91 % of control

CCCCCCc1cc(-c2cc(CCCCCC)nc(N)n2)nc(N)n1
inactive: [22] 100 % of control | [23] 115 % of control

CCOC(=O)c1ccc(NC(CCl)=NC(C)(C)C)cc1
inactive: [1] 86 % of control | [2] 100 % of control | [3] 90 % of control

c1ccc(CC(Nc2cccnc2)c2ccccc2)cc1 (stereo not given)
inactive: [19] 98 % of control | [20] 104 % of control | [21] 101 % of control

O=P(O)(O)c1ccccc1P(=O)(O)O
inactive: [22] 105 % of control | [23] 93 % of control

CC(C)=Cc1cc(CCC/C(C)=C/Cc2c(O)cc(C)c(C(=O)O)c2O)co1
inactive: dose: 4.5 mg/kg/injection, schedule: Q01DX005 (ip), vehicle: Klucel (hydroxypropylcellulose) (HPC) 100 % of control | dose: 9.0 mg/kg/injection, schedule: Q01DX005 (ip), vehicle: Klucel (hydroxypropylcellulose) (HPC) 91 % of control | dose: 18.0 mg/kg/injection, schedule: Q01DX005 (ip), vehicle: Klucel (hydroxypropylcellulose) (HPC) 92 % of control | dose: 36.0 mg/kg/injection, schedule: Q01DX005 (ip), vehicle: Klucel (hydroxypropylcellulose) (HPC) 98 % of control | [7] 105 % of control | dose: 72.0 mg/kg/injection, schedule: Q01DX005 (ip), vehicle: Klucel (hydroxypropylcellulose) (HPC) 88 % of control | [8] 107 % of control | [9] 98 % of control

O=C1c2ccccc2C(=O)N1CS(=O)(=O)CN1C(=O)c2ccccc2C1=O
inactive: [16] 97 % of control | [17] 93 % of control | [18] 97 % of control
